Values of other authors in US10426749B2, “Safflower oil emulsion as dietary supplement and preparation thereof” (INNOVITAMIN ORGANICS, LLC, priority 2011, dated 2019).

Test system: post-menopausal, obese women with type 2 diabetes
Details: 8 grams daily for 16 weeks

conjugated linoleic acid [CLA]
metabolic parameters (trunk fat mass, HDL cholesterol, fasting glucose, insulin sensitivity, C-reactive protein): did not significantly alter
